{
  "source": "the NIST ThermoML archive (doi:10.1016/j.jct.2012.04.017)",
  "conditions": "101.33 kPa, Liquid, Vibrating tube method",
  "note": "Numbers after ± are expanded uncertainties.",
  "data": [
    {"smiles": "CCCCCCCCCCn1cc[n+](C)c1.N#C[B-](C#N)(C#N)C#N", "note": "[1-decyl-3-methyl-1H-imidazolium tetracyanoborate]", "values": [
      {"measurement": "mass density", "setting": "298.15 K", "value": "955.57 ± 0.12", "unit": "kg/m3"}
    ]},
    {"smiles": "CCCCCCn1cc[n+](C)c1.N#C[B-](C#N)(C#N)C#N", "note": "[1-hexyl-3-methylimidazolium tetracyanoborate]", "values": [
      {"measurement": "mass density", "setting": "298.15 K", "value": "983.03 ± 0.24", "unit": "kg/m3"}
    ]},
    {"smiles": "CCCCO", "note": "[butan-1-ol]", "values": [
      {"measurement": "mass density", "setting": "298.15 K", "value": "798.06 ± 0.15", "unit": "kg/m3"}
    ]},
    {"smiles": "CCCCCCCCCCCCCC[P+](CCCCCC)(CCCCCC)CCCCCC.N#C[B-](C#N)(C#N)C#N", "note": "[trihexyltetradecylphosphonium tetracyanoborate]", "values": [
      {"measurement": "mass density", "setting": "298.15 K", "value": "891.05 ± 0.23", "unit": "kg/m3"},
      {"measurement": "mass density", "setting": "308.15 K", "value": "884.97 ± 0.23", "unit": "kg/m3"},
      {"measurement": "mass density", "setting": "318.15 K", "value": "879.06 ± 0.23", "unit": "kg/m3"},
      {"measurement": "mass density", "setting": "328.15 K", "value": "873.16 ± 0.23", "unit": "kg/m3"},
      {"measurement": "mass density", "setting": "338.15 K", "value": "867.25 ± 0.24", "unit": "kg/m3"},
      {"measurement": "mass density", "setting": "348.15 K", "value": "861.36 ± 0.24", "unit": "kg/m3"}
    ]}
  ]
}
